Test results published in patent publication US6699834B1, “Method for treating cancer” (University of Maryland Biotechnology Institute, priority 1997, dated 2004).

Columns and labels:
[1] = test system: HIV RNA and protein expression; assay: HIV RNA and protein expression in HIV-1 transgenic mice; type: in vivo; conditions: for inhibition of HIV RNA and protein expression: inhibition of HIV RNA and protein expression in HIV-1 transgenic mice; for HIV-1 gene / protein expression in transgenic mice (in words): pups dosed via mother's milk
Description: (§1) The HIV-1 transgenic mice used for this study contain 7.4 kb of foreign DNA, including 5.1 kb of the HIV-1 proviral genome deleted in the gag and pol genes and 2.3 kb of vector (Dickie et al., 1991, Virology 185:109-119). […] In addition, these mice develop severe hyperkeratotic skin lesions with marked expression of gp 120 and nef genes (Kopp et al., 1993, AIDS Res. Hum. Retroviruses 9:267-275; Vasli et al., 1994, AIDS Res. Hum. Retroviruses 10:1241-1250).
Heterozygous transgenic mothers were treated with the hCG preparation subcutaneously twice weekly. Pups received hCG via the mother's milk.
Gene expression was assayed in total RNA extracted from the skin of Tg26 mice with RNAzol. One microgram of RNA was reverse transcribed into cDNA using random hexamer primers and […] reverse transcriptase (Life Technologies, MD) in a final volume of 30 μl. One tenth of the cDNA reactions were used for PCR amplification of various HIV gene sequences (env, tat, rev, nef and vif). In addition, glyceraldehyde 3-phosphate dehydrogenase (GAPHD) mRNA was amplified for each sample for normalization. Following 25 cycles of amplification, 10% of the PCR product was resolved by electrophoresis through 2% agarose gels and processed for Southern hybridization using FITC-labeled oligonucleotide probes complimentary to internal sequences of the amplicons. Detection was performed by chemiluminescence (Amersham) and relative mRNA levels determined by densitometry after normalization with GAPDH mRNA levels.
(§2) Finally, certain fractions were tested for their ability to increase survival, promote weight gain and reduce HIV-1 gene expression in HIV-1 transgenic mice as described herein.

HIV-1 transgenic mice = assay: Survival, growth and weight of HIV-1 transgenic mouse pups; type: in vivo; conditions: HIV-1 transgenic pups
Description: as §1, §2
HIV-I transgenic pups administered hCG and hCG-related preparations for the first 5 days after birth through the mothers milk were monitored for survival at 10 days after birth.

lung cancer cells = assay: Clonogenic assay, lung cancer cells; type: cell-based; conditions: compared to PBS alone
Description: The hCG preparations, fractions of the early pregnancy urine and hCG APL™ SUPERDEX™ 200 fractionations (described herein), and certain β-hCG peptides were tested on prostate, lung, breast, and kidney cancer cells in vitro, and on prostate tumors in nude mice. […] The preparations fractions and peptides were also assayed using a clonogenic assay in which cells were seeded in methylcellulose in the presence or absence of test substance and then colonies were counted after a certain period of time. Cells were also examined for apoptosis by confocal microscopy.

KS Y-1 and KS-SLK cells = assay: Kaposi's Sarcoma clonogenic assay in cultured cells; type: cell-based, human; conditions: for inhibition of KS cell growth in clonogenic assays (in words): KS Y-1 and KS SLK; for KS in vitro: inhibition of Kaposi's Sarcoma cell growth in vitro in cultured cells
Description: Briefly, the KS Y-1 cells were obtained from mononuclear cells isolated from pleural effusion of an AIDS patient with KS in the lungs. After the depletion of T lymphocytes, monocytes/macrophages and fibroblasts using monoclonal antibodies against CD2, CD3, CD4, CD8, CD10 and CD14 membrane antigens and baby rabbit complement, the cells were cultured in the absence of exogenous growth factors to select for transformed cells. […] Clonogenic assays were performed by seeding the KS Y-1 or KS-SLK cells in methylcellulose (0.8%, v/v), incubating the cells for 10 days in the presence or absence of the hCC, β-hCG or β-hCG peptide preparations and then counting the number of well-formed colonies of triplicate wells formed after seeding with 5×10^4 cells.
To assay for activity against Kaposi's sarcoma cell growth in vitro, the clonogenic assay described herein was used with the KS Y-1 and KS-SLK cultured Kaposi's Sarcoma cell lines,.

[2] = test system: Kaposi's Sarcoma induced in mice; assay: Kaposi's Sarcoma tumors induced in mice by KS Y-1 cells; type: in vivo; conditions: for KS in vivo: inhibition of Kaposi's Sarcoma induced in mice; for effect on KS tumors in mice (in words): mouse, in vivo
Description: The effects of the peptides on KS tumor cells were also evaluated in vivo in the KS mouse model. To induce KS tumors in the mice, 1×10^6/ml KS Y-1 cells in 50 μl PBS or saline were injected subcutaneously into immunodeficient mice (beige-XID-BNX mice). […] Methods for detection of apoptosis (from tissue biopsies) were used, as described in Lunardi-Iskandar et al.(1995, Nature 375:64-68). Briefly, the samples were stained in situ for the presence of cells with DNA fragmentation. Tissue slides from formalin-fixed tumors were treated with terminal deoxynucleotide transferase for extension of DNA ends (hydroxyl 3′) and incorporation of digoxigenin-11-dUTP according to the manufacturer's instructions (Oncor, Gaithersburg, Md.). Anti-digoxigenin antibody conjugated with the enzyme peroxidase allowed detection of apoptotic cells, which stain brown, whereas viable cells stain blue.
Certain fractions were tested for activity in reducing Kaposi's Sarcoma lesions in the Kaposi's Sarcoma mouse model as described herein. In this assay, starting one week after injection of the KS Y-1 cells to induce Kaposi's sarcoma formation, the mice were injected subcutaneously with 100 IU hCG. […] After one week of the week of treatment with the hCG fractions, the KS lesions were examined for cell apoptosis and regression as described herein.
Certain fractions of the APL™ hCG and early pregnancy urine were assayed for their ability to elicit apoptosis in Kaposi's Sarcoma lesions induced by injection of KS Y-1 cells in mice (n=3 mice for each treatment). The mice were administered 100 μl subcutaneously of the particular fraction each day for one week.

HIV-1 = conditions: for HIV in vitro Inhibition: inhibition of HIV-1 replication in vitro (HIV-1 strains and HIV-1 primary isolates)
Description: To prepare HIV infected cells for the in vitro assay of hCG preparations and β-hCG peptides and derivatives, primary PBMCs, macrophages, and CD4^+ T cells isolated from peripheral blood and the H9 human T cell line, were acutely or chronically infected with 8 different HIV-1 strains: 4 cell line adapted viruses, namely the macrophage tropic Ba-L strain (Gartner et al., 1986, Science 233:215-219) and the CD4^+ T cell tropic MN, RF, and IIIB strains (10^5 TCID50/ml) (Popovic et al., 1984, Science […]; Gallo et al.; 1984, Science 224:500-503); 2 isolates, Ju1083 and G3, from Nigerian AIDS patients passed once in a CD4^+ T cell line (Sub-T1); and 2 primary (“clinical”) isolates from AIDS patients from Trinidad which were never passed in any cell line and were used at a titer of 7.5×10^4TCID50/ml. In all experiments; HIV1 (10^5 TCID50/ml) was added to the cells(10^6 cells/ml) for a 2 hour incubation after which the virus infected cells were washed with 10 ml phosphate buffered saline (PBS) three times to eliminate extra cellular virus. The test inhibitor, i.e. the hCG or β-hCG peptide preparation was then added and the cells were incubated with the test inhibiter for 9 to 10 days with serial sampling. Cultures were assayed for p24 antigen on days 3 to 10.
Peptides of the α- and β-subunits (0.05 to 50 nmoles/ml), native α chain preparation, and various crude preparations of the native hCG heterodimer (0.01 to 1,000 IU) and the native β-hCG subunit (100 to 1,000 μg) were tested for effects on HIV-1 replication in acutely infected cells-by measuring change in viral antigen levels in response to the above noted preparations (FIGS. 4A-D and Table 3).
The fractions were then tested for anti-HIV, anti-KS and pro-hematopoietic activities in vitro. To assay for inhibition of HIV-1 replication in vitro, the HIV-1 […] viral strain was used to infect PBMCs and PM-1 cells (derived from the HUT-78 T-cell lymphoma cell line) at 10^3 TCID50/ml as described in detail herein.

[3] = test system: hematopoietic progenitor cells; assay: Hematopoietic progenitor clonogenic assays (CFU-GEMM, BFU-e, CFU-GM); type: cell-based, human; conditions: for Pro-hematopoiesis in vitro Enhancement: relative increase of hematopoietic colony cell number, hCG preparations 200 IU/ml, subunits and peptides 100 μg/ml
Description: The effect of hCG preparations and peptides was assayed on hematopoietic progenitor cells in vitro: Hematopoietic progenitor cells (2×10^5 cell/ml) were isolated from normal bone marrow and cord blood and seeded in methylcellulose. […] The hCG preparations were administered at 200 IU/ml and the β- and α-subunits and peptides were administered at 100 μg/ml. The native commercial preparation of hCG (APL™, Wyeth Ayerst) was pre-tested for anti-HIV and anti-KS activities. Aggregates containing more than 50 cells after 10 days of culture were counted as colonies.

Row | Substance | inhibition of HIV RNA and protein expression [1] | HIV-1 gene / protein expression in transgenic mice (in words) [1] | weight gain / growth retardation and cachexia (HIV-1 transgenic mice) | colony formation (lung cancer cells) | inhibition of KS cell growth in clonogenic assays (in words) (KS Y-1 and KS-SLK cells) | KS in vitro (KS Y-1 and KS-SLK cells) | KS in vivo [2] | effect on KS tumors in mice (in words) [2] | inhibition of HIV-1 infection/replication in vitro (in words) (HIV-1) | HIV in vitro Inhibition (HIV-1) | promotion of hematopoiesis (in words) [3] | Pro-hematopoiesis in vitro Enhancement [3]
1 | 3. 45-57: β-hCG amino acids 45-57 (SEQ ID NO:6) (LQGVLPALPQVVC) | ++ (“++” represents greater than 40% effect) | considerable inhibition | higher weight gain than untreated mice | inhibited colony formation | strongest anti-tumor effects | ++ (“++” represents greater than 40% effect) | ++ (“++” represents greater than 40% effect) | extensive cell death | inhibit HIV-1 replication in vitro | ++ (“++” represents greater than 40% effect) | directly promoted | ++ (“++” represents greater than 40% effect)
2 | 8. 41-54: β-hCG amino acids 41-54 (SEQ ID NO:3) (MTRVLQGVLPALPQ) | − (“−” represents less than 10% effect) | – | – | – | – | − (“−” represents less than 10% effect) | − (“−” represents less than 10% effect) | – | – | − (“−” represents less than 10% effect) | – | − (“−” represents less than 10% effect)
3 | 32. 48-56: β-hCG amino acids 48-56 (SEQ ID NO:35) (VLPALPQVV) | + (“+” represents greater than 15% effect) | elicited inhibition | – | – | – | + (“+” represents greater than 15% effect) | + (“+” represents greater than 15% effect) | some anti-KS activity | inhibited HIV-1 replication | + (“+” represents greater than 15% effect) | pro-hematopoietic effect | + (“+” represents greater than 15% effect)
4 | 30. 37-55: β-hCG amino acids 37-55 as printed; probably 47-55 (YCPTMTRVLQGVLPALPQV; UniProt P0DN86 57-75, looked up, fragment) | + (“+” represents greater than 15% effect) | – | – | – | – | + (“+” represents greater than 15% effect) | + (“+” represents greater than 15% effect) | – | – | + (“+” represents greater than 15% effect) | – | + (“+” represents greater than 15% effect)
5 | 6. 45-57::109-119: β-hCG 45-57 linked at the C-terminus to the N-terminus of 109-119 (SEQ ID NO:30) (LQGVLPALPQVVCTCDDPRFQDSS) | ++ (“++” represents greater than 40% effect) | – | – | inhibited colony formation | strongest anti-tumor effects | ++ (“++” represents greater than 40% effect) | ++ (“++” represents greater than 40% effect) | significant anti-KS activity | inhibit HIV-1 replication in vitro | ++ (“++” represents greater than 40% effect) | directly promoted | ++ (“++” represents greater than 40% effect)
6 | 13. 6-16: β-hCG amino acids 6-16 (RPRCRPINATL; UniProt P0DN86 26-36, looked up, fragment) | − (“−” represents less than 10% effect) | – | – | – | – | − (“−” represents less than 10% effect) | − (“−” represents less than 10% effect) | – | – | − (“−” represents less than 10% effect) | – | − (“−” represents less than 10% effect)
